From publication PMC2801581 (Journal of medicinal chemistry, 2009)
Read-outs that look alike come from different tables or passages of the source.

Tests used:
TCPTP = target: T1, TCPTP (Homo sapiens, UniProt P17706); test: TCPTP inhibition assay with fluorogenic substrates; format: biochemical; settings: for IC50: pH 7.1
T1 sequence (P17706 5-275 limits assumed): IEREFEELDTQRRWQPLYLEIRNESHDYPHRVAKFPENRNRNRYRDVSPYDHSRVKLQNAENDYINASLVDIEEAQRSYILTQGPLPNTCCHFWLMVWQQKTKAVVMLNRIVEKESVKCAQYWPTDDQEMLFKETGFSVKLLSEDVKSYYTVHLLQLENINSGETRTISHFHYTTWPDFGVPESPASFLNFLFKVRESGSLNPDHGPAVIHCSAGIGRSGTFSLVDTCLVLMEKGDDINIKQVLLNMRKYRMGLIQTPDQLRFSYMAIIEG

PTP1B = target: T2, PTP1B (Homo sapiens, UniProt P18031); test: PTP1B inhibition assay with fluorogenic substrates; format: biochemical; settings: for PTP1B inhibition in library screen, peptide 2 versus DiFMUP: nominal 5 µM; for IC50: pH 7.1
T2 sequence (P18031 3-277 limits assumed): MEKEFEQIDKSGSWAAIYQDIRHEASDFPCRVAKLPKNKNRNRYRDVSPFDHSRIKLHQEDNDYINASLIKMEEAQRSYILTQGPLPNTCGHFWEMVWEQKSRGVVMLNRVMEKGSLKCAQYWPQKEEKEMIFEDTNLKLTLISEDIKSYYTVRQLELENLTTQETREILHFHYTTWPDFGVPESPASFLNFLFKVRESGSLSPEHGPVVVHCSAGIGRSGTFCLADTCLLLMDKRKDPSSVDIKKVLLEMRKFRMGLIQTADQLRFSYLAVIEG

HePTP = target: T3, HePTP (Homo sapiens, UniProt P35236); test: HePTP counterscreen; format: biochemical; settings: read-out: IC50 HePTP (DiFMUP)
T3 sequence (P35236 65-360): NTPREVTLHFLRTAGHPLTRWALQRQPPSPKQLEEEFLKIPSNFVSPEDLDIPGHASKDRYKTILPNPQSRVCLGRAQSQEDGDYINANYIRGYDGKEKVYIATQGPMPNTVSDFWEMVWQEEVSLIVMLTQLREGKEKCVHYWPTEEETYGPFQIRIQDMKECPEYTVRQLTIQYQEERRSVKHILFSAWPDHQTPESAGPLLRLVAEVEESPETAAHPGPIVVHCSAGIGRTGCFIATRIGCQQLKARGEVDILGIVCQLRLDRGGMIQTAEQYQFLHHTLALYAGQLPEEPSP

CD45 [1] = target: T4, CD45 (Homo sapiens, UniProt P08575); test: CD45 counterscreen; format: biochemical; settings: read-out: IC50 CD45 (DiFMUP)
T4 sequence (P08575 653-912 limits assumed): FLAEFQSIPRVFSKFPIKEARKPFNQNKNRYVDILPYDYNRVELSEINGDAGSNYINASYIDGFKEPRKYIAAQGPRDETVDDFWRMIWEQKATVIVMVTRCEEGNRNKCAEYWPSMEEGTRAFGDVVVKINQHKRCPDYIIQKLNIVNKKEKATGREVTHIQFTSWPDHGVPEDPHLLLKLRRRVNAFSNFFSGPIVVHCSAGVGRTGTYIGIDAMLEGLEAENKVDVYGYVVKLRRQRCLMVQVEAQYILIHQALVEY

LYP [2] = target: T5, LYP (Homo sapiens, UniProt Q9Y2R2); test: LYP inhibition assay with fluorogenic substrates; format: biochemical; settings: for selectivity for LYP over PTP-PEST in dose-response screens: in vitro, Table 1; for IC50: pH 6.5; for LYP versus PTP-PEST inhibition in comparative library screen: nominal 5 µM, DiFMUP and peptide 1
T5 sequence (Q9Y2R2 2-309): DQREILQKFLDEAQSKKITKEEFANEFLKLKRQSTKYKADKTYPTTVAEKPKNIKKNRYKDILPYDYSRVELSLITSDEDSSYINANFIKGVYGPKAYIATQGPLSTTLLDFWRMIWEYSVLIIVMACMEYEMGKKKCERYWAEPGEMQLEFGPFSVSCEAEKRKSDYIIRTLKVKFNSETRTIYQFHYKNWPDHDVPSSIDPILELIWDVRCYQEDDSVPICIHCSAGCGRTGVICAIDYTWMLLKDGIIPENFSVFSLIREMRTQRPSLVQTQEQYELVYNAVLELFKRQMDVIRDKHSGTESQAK

PTP-PEST = target: T6, PTP-PEST (Homo sapiens, UniProt Q05209); test: PTP-PEST inhibition assay with fluorogenic substrates; format: biochemical; settings: pH 6.5
T6 sequence (Q05209 2-323): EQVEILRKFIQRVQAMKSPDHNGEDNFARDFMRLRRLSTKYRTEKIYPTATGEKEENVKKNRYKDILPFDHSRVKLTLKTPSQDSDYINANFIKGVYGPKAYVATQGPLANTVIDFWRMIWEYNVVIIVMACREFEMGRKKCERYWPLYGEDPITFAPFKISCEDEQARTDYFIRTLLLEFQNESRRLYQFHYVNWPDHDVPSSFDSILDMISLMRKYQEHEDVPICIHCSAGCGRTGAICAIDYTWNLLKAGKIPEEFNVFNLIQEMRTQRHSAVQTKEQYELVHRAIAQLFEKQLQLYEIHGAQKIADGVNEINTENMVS

LYP [3] = test: Intracellular LYP inhibition in JTAg cells, anti-pLck; format: cell-based, human; settings: JTAg cells, TCR stimulated (C305, 2 min); 50 µM of 17 and 34, 25 µM of 39, 1 h
CD45 [4] = target: T7, CD45 (Homo sapiens, UniProt P08575); test: Intracellular CD45 inhibition in JTAg cells, anti-pLck; format: cell-based; settings: JTAg cells; 50 µM of 17 and 34, 25 µM of 39, 1 h
T7 sequence (P08575 26-1306): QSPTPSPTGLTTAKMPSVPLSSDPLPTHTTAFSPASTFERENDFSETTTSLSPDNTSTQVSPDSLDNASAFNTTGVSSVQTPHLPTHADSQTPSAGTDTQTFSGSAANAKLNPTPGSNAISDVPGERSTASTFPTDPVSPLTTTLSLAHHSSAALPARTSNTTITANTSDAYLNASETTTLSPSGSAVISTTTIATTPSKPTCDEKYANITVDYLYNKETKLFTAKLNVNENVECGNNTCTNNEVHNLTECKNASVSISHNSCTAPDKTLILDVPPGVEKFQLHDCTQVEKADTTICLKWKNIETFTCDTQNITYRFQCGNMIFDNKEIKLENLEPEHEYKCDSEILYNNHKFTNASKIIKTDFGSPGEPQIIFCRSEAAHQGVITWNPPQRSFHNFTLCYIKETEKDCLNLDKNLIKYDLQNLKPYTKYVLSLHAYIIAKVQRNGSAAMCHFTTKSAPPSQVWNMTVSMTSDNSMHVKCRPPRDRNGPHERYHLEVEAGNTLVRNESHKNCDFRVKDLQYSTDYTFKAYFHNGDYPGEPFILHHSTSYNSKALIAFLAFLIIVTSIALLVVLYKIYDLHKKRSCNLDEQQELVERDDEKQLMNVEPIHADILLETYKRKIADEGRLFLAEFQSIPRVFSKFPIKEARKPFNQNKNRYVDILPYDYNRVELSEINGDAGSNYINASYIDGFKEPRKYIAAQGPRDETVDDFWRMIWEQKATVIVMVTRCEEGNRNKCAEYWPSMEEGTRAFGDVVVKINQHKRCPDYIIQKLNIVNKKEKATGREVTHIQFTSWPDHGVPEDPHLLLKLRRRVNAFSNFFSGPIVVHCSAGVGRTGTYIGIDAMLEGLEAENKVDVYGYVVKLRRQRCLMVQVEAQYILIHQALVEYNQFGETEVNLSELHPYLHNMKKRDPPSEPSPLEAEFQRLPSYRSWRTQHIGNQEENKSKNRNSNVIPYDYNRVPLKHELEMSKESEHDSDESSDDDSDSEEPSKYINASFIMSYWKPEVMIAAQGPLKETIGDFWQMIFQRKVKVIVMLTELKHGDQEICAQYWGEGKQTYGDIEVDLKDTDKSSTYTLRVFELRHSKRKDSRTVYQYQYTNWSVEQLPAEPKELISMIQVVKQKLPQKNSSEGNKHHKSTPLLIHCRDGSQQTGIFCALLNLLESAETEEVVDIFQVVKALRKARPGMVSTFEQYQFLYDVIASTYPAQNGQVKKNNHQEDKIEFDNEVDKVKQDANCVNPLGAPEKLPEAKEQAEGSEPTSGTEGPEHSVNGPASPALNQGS

[5] = read-out: IC50 TCPTP (DiFMUP), substrate DiFMUP 1.5 µM
[6] = read-out: IC50 TCPTP (peptide 2), substrate peptide 2 60 µM
[7] = read-out: IC50 PTP1B (DiFMUP), substrate DiFMUP 1.5 µM
[8] = read-out: IC50 PTP1B (peptide 2), substrate peptide 2 60 µM
[9] = read-out: IC50 LYP (DiFMUP), substrate DiFMUP 1.5 µM
[10] = read-out: IC50 LYP (peptide 1), substrate peptide 1 10 µM
[11] = read-out: IC50 PEST (peptide 1)
[12] = read-out: IC50 PEST (DiFMUP), substrate DiFMUP 1.5 µM
[13] = read-out: IC50 PEST (peptide 1), substrate peptide 1 10 µM

SMILES | selectivity for LYP over PTP-PEST in dose-response screens (LYP [2]) | IC50 (LYP [2]; [9]) [nM] | IC50 (LYP [2]; [10]) [nM] | IC50 (HePTP; substrate DiFMUP) [µM] | IC50 (CD45 [1]; substrate DiFMUP) [µM] | IC50 (PTP-PEST; [12]) [µM] | IC50 (PTP-PEST; [13]) [µM] | LYP versus PTP-PEST inhibition in comparative library screen (LYP [2]) | other results
[Cl][Au][PH](c1ccco1)(c1ccco1)c1ccco1 [Compound 19, Tri-2-furylphosphine-Au(I)-Cl] |  |  |  |  |  |  |  |  | IC50 (TCPTP; [5]): 2.4 ± 0.2 µM; IC50 (TCPTP; [6]): 2.2 ± 0.3 µM; selectivity between PTP1B and TCPTP in dose-response screens (PTP1B; Table 2): selective for PTP1B with both substrates; PTP1B inhibition in library screen, peptide 2 versus DiFMUP (PTP1B): inhibit PTP1B better with peptide 2 than with DiFMUP; IC50 (PTP1B; [7]): 0.33 ± 0.02 µM; IC50 (PTP1B; [8]): 0.2 ± 0.02 µM
O=S(=O)(O)c1ccc([P+]([Au-][Cl])(c2ccccc2)c2ccc(S(=O)(=O)O)cc2)cc1 [Compound 18, 4,4′-(Phenylphosphinidene)bis(benzenesulfonic acid)-Au(I)-Cl] | selective for LYP over the ~ 70% identical PTP-PEST | 2000 ± 100 | 850 ± 50 |  |  |  |  |  | TCPTP versus PTP1B inhibition in comparative library screen (TCPTP): slightly TCPTP selective with peptide 2; selectivity for TCPTP (over PTP1B) (TCPTP): approximately 2 fold; IC50 (TCPTP; read-out: IC50 TCPTP (DiFMUP)): 16 ± 1 µM; IC50 (TCPTP; read-out: IC50 TCPTP (peptide 2)): 7.5 ± 0.3 µM; IC50 (HePTP): 16 ± 2 µM; IC50 (CD45 [1]): 26 ± 1 µM; IC50 (PTP-PEST; read-out: IC50 PEST (DiFMUP)): 39 ± 1 µM; IC50 (PTP-PEST; [11]): 10 ± 2 µM; selectivity between PTP1B and TCPTP in dose-response screens (PTP1B): no significant selectivity with DiFMUP; IC50 (PTP1B; read-out: IC50 PTP1B (DiFMUP)): 16 ± 1 µM; IC50 (PTP1B; read-out: IC50 PTP1B (peptide 2)): 15 ± 1 µM
N#CCC[P+](CCC#N)([Au-][Cl])c1ccccc1 [Compound 28, Bis(2-cyanoethyl)phenylphosphine-Au(I)-Cl] | selective for LYP over the ~ 70% identical PTP-PEST | 3500 ± 100 | 2500 ± 600 | > 50 | > 70 | > 80 | 33 ± 1 |  | 
[Cl][Au][PH](C1CCCCC1)(C1CCCCC1)C1CCCCC1 [Compound 25, Tricyclohexylphosphine-Au(I)-Cl] |  | 25000 ± 1000 | 61000 ± 1000 | 20 ± 2 | > 70 | 45 ± 1 | > 80 | appear LYP-selective when DiFMUP is used in the assay, but not when the peptide is used | 
Fc1c(F)c(F)c([PH]([Au][Cl])(c2c(F)c(F)c(F)c(F)c2F)c2c(F)c(F)c(F)c(F)c2F)c(F)c1F [Compound 40] |  |  |  |  |  |  |  |  | IC50 (TCPTP; [5]): 6.7 ± 0.2 µM; IC50 (TCPTP; [6]): 57 ± 1 µM; selectivity between PTP1B and TCPTP in dose-response screens (PTP1B; Table 2): no significant selectivity with DiFMUP; PTP1B inhibition in library screen, peptide 2 versus DiFMUP (PTP1B): the reverse seems to be true; IC50 (PTP1B; [7]): 7.5 ± 0.2 µM; IC50 (PTP1B; [8]): 5.4 ± 0.3 µM; selectivity for PTP1B (over TCPTP) (PTP1B; with peptide 2 as substrate): ~10 fold
CCP(CC)CC.[Au+].[Cl-] [Compound 39] | selective for LYP over the ~ 70% identical PTP-PEST | 33000 ± 3000 | 26000 ± 2000 | 120 ± 5 | 33 ± 3 | > 150 | 93 ± 9 | appears LYP selective with peptide 1, but not with DiFMUP | phosphorylation of Lck at Y394 (LYP activity in cells) (LYP [3]): increase in phosphorylation at Y394; phosphorylation of Lck at Y505 (CD45 activity in cells) (CD45 [4]): increase in this band; selectivity for LYP over PTP-PEST (LYP [2]; with peptide 1 as substrate): ~4 fold
O=S(=O)(O)c1cccc([P+]([Au-][Cl])(c2ccccc2)c2ccccc2)c1 [Compound 12, 3-(Diphenylphosphino)benzenesulfonic acid-Au(I)-Cl] |  | 2000 ± 100 | 1900 ± 200 |  |  |  |  | appear LYP-selective when DiFMUP is used in the assay, but not when the peptide is used | IC50 (HePTP): 40 ± 1 µM; IC50 (CD45 [1]): > 70 µM; selectivity for LYP over PTP-PEST (LYP [2]; with DiFMUP as substrate): 35 fold; selectivity for LYP over PTP-PEST (LYP [2]; with peptide 1 as substrate): 2 fold; IC50 (PTP-PEST; read-out: IC50 PEST (DiFMUP)): 70 ± 2 µM; IC50 (PTP-PEST; [11]): 4 ± 0.2 µM
CP(C)c1ccccc1.[Cl][Au] [Compound 13, Dimethylphenylphosphine-Au(I)-Cl] | selective for LYP over the ~ 70% identical PTP-PEST | 3500 ± 300 | 2000 ± 300 | > 50 | > 100 | 70 ± 2 | 30 ± 2 | more potent inhibitors of LYP than PTP-PEST regardless of the substrate used | 
